Patent publication US20220370586A1, “METHOD OF GENERATING ACTIVATED T CELLS FOR CANCER THERAPY” (Cedars-Sinai Medical Center, priority 2019, published 2022)

Legend:
B16 melanoma = B16 melanoma implantation in C57 BL mice; format: in vivo
Protocol: After implantation of B16 melanoma, C57 BL mice underwent treatment with 11702 GITR agonist or DMSO control. (A) Animals lived longer after GITR agonist intraperitoneal 30 mg/kg treatment twice per week (p=0.0333, log rank). (B) Tumor volume was inhibited in 11702 treated animals (p<0.05, Anova).
After implantation of B16 melanoma, C57 BL mice underwent treatment with 11702 GITR agonist or DMSO control. […] (B) Tumor volume was inhibited in 11702 treated animals (p<0.05, Anova).

T effector cells = test: T cell suppression assay (CFSE proliferation of T effector cells, FACS); format: cell-based, human; conditions: for effect on T effector cell proliferation (in words): T cell activation by antigen presenting cells, with or without Tregs; for increase of T cell expansion compared to T control group (without molecule): with T-reg (1:1)
Excerpt: PBMC was isolated (Ficoll, GE Healthcare) from the WBC cone collected from healthy platelet donor. Cells were washed and passed through 40 um cell strainer before being stained with T cell surface antibodies. Then cells were put on cell sorter (BD FACSARIA III). Specific cell populations were collected as follows: CD4^+CD25^− cells (T effector cells), CD4^+CD25^+CD45RA^+CD127^− cells (T regulatory cells) and CD3^− cells (serve as Antigen Presenting Cells, APC). T effector cells were labeled with CellTrace CFSE (Invitrogen), heavily washed before cell number counting. Effector cells and T-regs were then mixed together at 1:1 ratio in culture media (RPMI 1640, 10% FBS, Pen-Strep and 1% NEAA) which enhanced with anti-CD3 (3 ug/ml) anti-CD28 (2 ug/ml) antibodies. APCs were treated with Mitomycin (50 ug/ml) for 30 minutes at 37° C., 5% CO2 incubator, then added to culture mix (APC:T-eff 2:1) as a proliferation co-stimulator. Cell mixture was incubated at 37° C., 5% CO2 for 6 days before being re-stained with T cell surface markers (CD4, CD25) and sent for FACS analysis (FIGS. 1A-1B, 4 and 5).
Molecule 11702 and 11704 were added to treat groups respectively at a concentration gradient of 5 uM, 25 uM and 50 uM.
FACS results focus on CD4^+CD25^−CFES^+ population (T effector cells). […] As T cells proliferate and replicate, CFSE peaks extend successively to left and become less fluorescent (toward negative range). The more cell population moves to left, the stronger the proliferation.

Row | Structure (SMILES) | survival (B16 melanoma; intraperitoneal 30 mg/kg twice per week vs DMSO control, p=0.0333, log rank) | PD-1 expression on activated CD4+ and effector memory CD8+ tumor infiltrating lymphocytes (B16 melanoma; vs DMSO control) | activated CD4+ cells among tumor infiltrating lymphocytes (FACs) (B16 melanoma; vs DMSO control) | effector memory cytotoxic CD8+ T cells among tumor infiltrating lymphocytes (FACs) (B16 melanoma; vs DMSO control) | Tumor volume (B16 melanoma; vs DMSO control, p<0.05, Anova) | effect on T effector cell proliferation (in words) (T effector cells) | most effective dose to accelerate T cell proliferation (T effector cells; T effector without T-reg) | increase of proliferated population compared to base line (T effector cells; T effector without T-reg, 5 uM) [%] | increase of proliferated population compared to base line (T effector cells; T effector without T-reg, 25 uM) [%] | increase of proliferated population compared to base line (T effector cells; T effector without T-reg, 50 uM) [%] | increase of T cell expansion compared to T control group (without molecule) (T effector cells; 5 uM) [%] | increase of T cell expansion compared to T control group (without molecule) (T effector cells; 25 uM) [%] | increase of T cell expansion compared to T control group (without molecule) (T effector cells; 50 uM) [%] | inhibition at 50 µM (T effector cells; Homo sapiens, T-cell, T effector without T-reg, 50 uM, read-out: inhibition (decrease) of T cell proliferation) [%] | inhibition at 25 µM (T effector cells; Homo sapiens, T-cell, with T-reg, 25 uM, read-out: inhibition (decrease) of T cell expanding) [%] | effect on T effector cells (T effector cells; T effector without T-reg, 5 uM) | effect on T effector cells (T effector cells; T effector without T-reg, 25 um) | decrease of proliferation compared to base line (T effector cells; with T-reg, 50 uM) [%]
1 | OCC1OC(Nc2ccc(-c3ccc(NC4CC(O)C(CO)O4)cc3)cc2)CC1O (stereo not shown) [RMGL171102] | lived longer | increased PD-1 expression | increased presence | increased | inhibited | highly active | around 25 uM | 47.4 | 61.7 | 52 | 34.4 | 96.7 | 107.1 |  |  |  |  | 
2 | O=C(CCCCC(=O)NN=Cc1cccc(O)c1)NN=Cc1cccc(O)c1 [RMGL171104] |  |  |  |  |  | dose dependent retraction of T effector cells |  |  |  |  |  |  |  | 39.1 | 33.9 | no significant effect | no significant effect | 55.9
